# What was measured:
# [1] = system: human hepatoma cells (HEP-G2); assay: Inhibition of 14C-acetate incorporation in digitonin-precipitatable steroids in HEP-G2 cells; assay type: cell-based; details: for percent change in 14C-acetate incorporation into sterols at 0.1 µM / percent change in 14C-acetate incorporation into sterols at 0.01 µM: Homo sapiens; for percent change in 14C-acetate incorporation into sterols at 0.1 µM: HepG2, 10^-7 mol/l; for percent change in 14C-acetate incorporation into sterols at 0.01 µM: HepG2, 10^-8 mol/l
# Experimental: I. Measurement of the inhibition of ^14 C-acetate incorporation in digitonin-precipitatable steroids:
# After 3 days of culture, human hepatoma cells (HEP-G2) are stimulated for 16 hours in cholesterol-free medium. The substances to be tested (dissolved in dimethyl sulphoxide, final concentration 0.1%) are added during this stimulation phase. After the addition of 200 μmol/l of 2-^14 C-acetate, the mixture is then reincubated at 37° C. for a further 2 hours.
# The cells are detached and the sterol esters are hydrolyzed and, after extraction, sterols are precipitated using digitonin. The ^14 C-acetate incorporated into digitonin-precipitatable sterols is determined by scintillation measurement.
# The investigation of the inhibitory action was carried out at test concentrations of 10^-7 mol/l and 10^-8 mol/l. The test results of the following compounds A to AG of the general formula I are indicated at these test concentrations by way of example: […]
# [2] = system: 2,3-epoxysqualene-lanosterol cyclase; assay: In vivo effect in the rat after oral administration: 2,3-epoxysqualene level in plasma; design: species or system rat (male Wistar); details: 5 hours after administration
# Experimental: II. Measurement of the in vivo effect in the rat after oral administration
# The inhibition of the enzyme 2,3-epoxysqualene-lanosterol cyclase causes an increase in the 2,3-epoxy-squalene level in the liver and plasma. Therefore, the amount of 2,3-epoxysqualene formed therefore serves as a direct measure of the effectiveness in the whole animal. The determination is carried out by the following method:
# The test substance suspended in 1.5% strength aqueous methylcellulose is administered via stomach tube to male Wistar rats (160-190 g body weight). 5 hours after administration, blood is obtained retroorbitally from the venous plexus. Plasma is extracted by the method of Bligh and Dyer (Canad. J. Biochem. Physiol. 37, 912, [1959]), purified by means of a precolumn and then analyzed by means of HPLC. The peaks obtained are identified and quantified by means of calibration substances. An internal standard is used to check the reproducibility of the results.
# The investigations were carried out using concentrations of 0.1 and 1.0 mg/kg. The results for the above mentioned substances A to M are compiled in the following Table by way of example: […]
Structure (SMILES),percent change in 14C-acetate incorporation into sterols at 0.1 µM [1] [%],percent change in 14C-acetate incorporation into sterols at 0.01 µM [1] [%],inhibition of 14C-acetate incorporation ([1]; 10^-8 mol/l) [%],"2,3-Epoxysqualene concentration in plasma (rat) ([2]; 0.1 mg/kg oral) [µg/mL]","2,3-Epoxysqualene concentration in plasma (rat) ([2]; 1.0 mg/kg oral) [µg/mL]",inhibition of 14C-acetate incorporation ([1]; 10^-7 mol/l) [%]
"O=C(c1ccc(Cl)cc1)N1CCC(Cc2ccc(C3=NCCS3)cc2)CC1 [P, 1-(4-chlorobenzoyl)-4-[4-(2-thiazolin-2-yl)benzyl]piperidine]",-14,-5,–,–,–,–
"O=C(c1ccc(Cl)s1)N1CCC(=Cc2ccc(C3=NCCO3)cc2)CC1 [F, 1-(5-chloro-2-thienoyl)-4-[4-(2-oxazolin-2-yl)benzylidene]piperidine]",-84,–,-55,0.00,2.00,–
"O=C(c1cccc2ccccc12)N1CCC(=Cc2ccc(C3=NCCO3)cc2)CC1 [AG, 1-(1-naphthylcarbonyl)-4-[4-(2-oxazolin-2-yl)benzylidene]piperidine]",-67,-30,–,–,–,–
"O=C(c1ccc(Br)cc1)N1CCC(=Cc2ccc(C3=NCCO3)cc2)CC1 [AD, 1-(4-bromobenzoyl)-4-[4-(2-oxazolin-2-yl)benzylidene]piperidine]",-85,-44,–,–,–,–
"Cc1cc(C=C2CCN(C(=O)c3ccc(Cl)cc3)CC2)ccc1C1=NCCO1 [M, 1-(4-chlorobenzoyl)-4-[3-methyl-4-(2-oxazolin-2-yl)benzylidene]piperidine]",-76,-32,–,0.78,6.53,–
"O=S(=O)(c1ccc(Cl)cc1)N1CCC(=Cc2ccc(C3=NCCN3)cc2)CC1 [O, 1-(4-chlorobenzenesulphonyl)-4-[4-(2-imidazolin-2-yl)benzylidene]piperidine]",-45,-1,–,–,–,–
"O=C(c1ccc([N+](=O)[O-])cc1)N1CCC(=Cc2ccc(C3=NCCO3)cc2)CC1 [AE, 1-(4-nitrobenzoyl)-4-[4-(2-oxazolin-2-yl)benzylidene]piperidine]",-71,-22,–,–,–,–
"COc1ccc(C(=O)N2CCC(=Cc3ccc(C4=NCCO4)cc3)CC2)cc1 [AC, 1-(4-methoxybenzoyl)-4-[4-(2-oxazolin-2-yl)benzylidene]piperidine]",-25,-16,–,–,–,–
"N#Cc1ccc(C(=O)N2CCC(=Cc3ccc(C4=NCCO4)cc3)CC2)cc1 [Y, 1-(4-cyanobenzoyl)-4-[4-(2-oxazolin-2-yl)benzylidene]piperidine]",-74,-51,–,–,–,–
"C[C@H]1CN=C(c2ccc(C=C3CCN(C(=O)c4ccc(Cl)cc4)CC3)cc2)O1 [Q, 1-(4-chlorobenzoyl)-4-[4-(S-5-methyl-2-oxazolin-2-yl)benzylidene]piperidine]",-89,-44,–,–,–,–
"O=C(c1ccc(Cl)cc1)N1CCC(=Cc2ccc(C3=N[C@@H](Cc4ccccc4)CO3)cc2)CC1 [V, 4-[4-(S-4-benzyl-2-oxazolin-2-yl)benzylidene]-1-(4-chlorobenzoyl)piperidine]",-29,-15,–,–,–,–
"O=C(c1c(F)c(F)c(F)c(F)c1F)N1CCC(=Cc2ccc(C3=NCCO3)cc2)CC1 [Z, 4-[4-(2-oxazolin-2-yl)benzylidene]-1-(pentafluorobenzoyl)piperidine]",-45,-8,–,–,–,–
"O=C(c1ccccc1)N1CCC(=Cc2ccc(C3=NCCO3)cc2)CC1 [AA, 1-benzoyl-4-[4-(2-oxazolin-2-yl)benzylidene]piperidine]",-70,-25,–,–,–,–
"O=C(c1ccc(Cl)cc1)N1CCC(=Cc2ccc(C3=NCC(c4ccccc4)O3)cc2)CC1 (centres unmarked) [S, 1-(4-chlorobenzoyl)-4-[4-(5-phenyl-2-oxazolin-2-yl)benzylidene]piperidine]",-24,0,–,–,–,–
"O=C(Cc1ccc(Cl)cc1)N1CCC(=Cc2ccc(C3=NCCO3)cc2)CC1 [AF, 1-(4-chlorophenylacetyl)-4-[4-(2-oxazolin-2-yl)benzylidene]piperidine]",-63,-22,–,–,–,–
"O=C(c1ccc(C(F)(F)F)cc1)N1CCC(=Cc2ccc(C3=NCCO3)cc2)CC1 [C, 4-[4-(2-oxazolin-2-yl)benzylidene]-1-(4-trifluoromethylbenzoyl)piperidine]",-90,-74,–,0.91,5.90,–
"O=C(c1ccc(Cl)cc1)N1CCC(=Cc2ccc(C3=NCCCO3)cc2)CC1 [B, 1-(4-chlorobenzoyl)-4-[4-(4,5-dihydro-6H-oxazin-2-yl)benzylidene]piperidine]",-77,-51,–,0.46,3.14,–
"O=C(c1ccc(F)cc1)N1CCC(=Cc2ccc(C3=NCCO3)cc2)CC1 [E, 1-(4-fluorobenzoyl)-4-[4-(2-oxazolin-2-yl)benzylidene]piperidine]",-81,-36,–,0.67,6.09,–
"C[C@@H]1COC(c2ccc(C=C3CCN(C(=O)c4ccc(Cl)cc4)CC3)cc2)=N1 [R, 1-(4-chlorobenzoyl)-4-[4-(R-4-methyl-2-oxazolin-2-yl)benzylidene]piperidine]",-88,-57,–,–,–,–
"CCN(CC)CC1CN=C(c2ccc(C=C3CCN(C(=O)c4ccc(Cl)cc4)CC3)cc2)O1 (centres unmarked) [T, 1-(4-chlorobenzoyl)-4-[4-(5-diethylaminomethyl-2-oxazolin-2-yl)benzylidene]piperidine]",-57,-29,–,–,–,–
"CC(C)(C)c1ccc(C(=O)N2CCC(=Cc3ccc(C4=NCCO4)cc3)CC2)cc1 [AB, 1-(4-tert.butylbenzoyl)-4-[4-(2-oxazolin-2-yl)benzylidene]piperidine]",-18,-6,–,–,–,–
"O=S(=O)(c1ccc(Cl)cc1)N1CCC(=Cc2ccc(C3=NCCO3)cc2)CC1 [N, 1-(4-chlorobenzenesulphonyl)-4-[4-(2-oxazolin-2-yl)benzylidene]piperidine]",-86,-63,–,–,–,–
"O=C(c1ccc(Cl)cc1)N1CCC(=Cc2ccc(C3=NC(CO)CO3)cc2)CC1 (centres unmarked) [U, 1-(4-chlorobenzoyl)-4-[4-(4-hydroxymethyl-2-oxazolin-2-yl)benzylidene]piperidine]",-60,-21,–,–,–,–
"Cc1cc(C(=O)N2CCC(=Cc3ccc(C4=NCCO4)cc3)CC2)ccc1Cl [D, 1-(4-chloro-3-methylbenzoyl)-4-[4-(2-oxazolin-2-yl)benzylidene]piperidine]",-88,-55,–,0.78,3.35,–
"O=C(c1ccc(Cl)cc1)N1CCC(=Cc2ccc(C3=NCCO3)cc2F)CC1 [L, 1-(4-chlorobenzoyl)-4-[2-fluoro-4-(2-oxazolin-2-yl)benzylidene]piperidine]",-83,-52,–,0.44,6.46,–
"O=C(c1ccc(Cl)s1)N1CCC(=Cc2ccc(C3=NCCO3)cc2)CC1 [X, 1-(5-chloro-2-thienoyl)-4-[4-(2-oxazolin-2-yl)benzylidene]piperidine]",–,–,-35,–,–,-84
"CC(=C1CCN(C(=O)c2ccc(Cl)cc2)CC1)c1ccc(C2=NCCO2)cc1 [W, 1-(4-chlorobenzoyl)-4-[4-(2-oxazolin-2-yl)-α-methylbenzylidene]piperidine]",-77,-35,–,–,–,–
